Assay results as given in article PMC5666312, “Profiling MHC II immunopeptidome of blood‐stage malaria reveals that cDC1 control the functionality of parasite‐specific CD4 T cells” (EMBO Molecular Medicine, 2017).
pIC50: −log10 of the molar value. Where no end group is shown, it is not given here.

Molecular target: T1, I‐A^b MHC II molecules (Mus musculus, UniProt P14434+P14483)
T1 construct: endogenous in cells; host or cells: mouse B-cell lymphoma LB27.4
T1 sequence (P14434 24-256): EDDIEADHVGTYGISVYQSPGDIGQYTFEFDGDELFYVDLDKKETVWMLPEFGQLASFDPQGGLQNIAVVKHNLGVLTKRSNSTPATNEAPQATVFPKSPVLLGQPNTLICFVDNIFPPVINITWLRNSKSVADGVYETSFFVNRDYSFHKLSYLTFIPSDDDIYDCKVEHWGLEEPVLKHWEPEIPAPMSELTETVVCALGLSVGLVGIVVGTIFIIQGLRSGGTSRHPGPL
T1 sequence (P14483 28-265): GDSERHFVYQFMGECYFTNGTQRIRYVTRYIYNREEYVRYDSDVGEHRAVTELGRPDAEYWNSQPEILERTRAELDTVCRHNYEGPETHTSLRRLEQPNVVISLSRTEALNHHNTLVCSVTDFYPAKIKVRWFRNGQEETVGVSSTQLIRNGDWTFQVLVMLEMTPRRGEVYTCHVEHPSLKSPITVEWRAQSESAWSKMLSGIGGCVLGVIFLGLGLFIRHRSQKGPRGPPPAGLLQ
Experiment: I-A^b binding assay: inhibition of binding of a high-affinity radiolabeled peptide
Details: competition with radiolabeled peptide ROIV (0.1–1 nM); purified I-A^b from LB27.4 B-cell lymphoma; room temperature, 2-day incubation; six concentrations; IC50 approximates Kd
Procedure: We used mass spectrometry to globally characterize Pb antigenic peptides presented by MHC II on the surface of DC (Fig 1A). We immunoprecipitated the MHC II molecules from a splenic DC tumor cell line called MutuDC (Fuertes Marraco et al, 2012), incubated with Pb‐parasitized RBC (pRBC). Peptide‐loaded MHC II are trimers of I‐A^bα chain, I‐A^bβ chain, and antigenic peptide, which, depending on the affinity of the loaded peptide, can remain stable in SDS without prior boiling (Natarajan et al, 1999). To ensure that our protocol allowed the pull‐down of peptide‐MHC II trimers and not just of single I‐A^bβ chain, we compared the migration of eluates with and without prior boiling, confirming that the immunoprecipitated material was SDS‐stable (Fig 1B). Although genetically very close to PbA (Otto et al, 2014), several variants of Pb causing different pathophysiological outcomes have been described (de Souza et al, 2010). Pb K173 (PbK) being the most “distant” from PbA (although SNPs were found only in 469 of […]; Otto et al, 2014), we decided to perform this analysis both with PbA and PbK pRBC. This led to the identification of a total of 372 unique I‐A^b‐eluted peptides, comprising 330 mouse sequences and 42 Pb sequences (Fig 1C, Dataset EV1), derived from 13 putative Pb antigenic proteins (Dataset EV2). In line with the modest level of polymorphisms between PbA and PbK, none of those source antigens was polymorphic. Remarkably, for seven antigens, we recovered multiple peptides containing a core of 11–16 amino acids (aa) and various N‐ or C‐terminal extensions (Dataset EV2). This feature is a typical property of MHC II ligands (Bozzacco et al, 2011; Sofron et al, 2016). For each set of nested peptides, we further analyzed the longest spanning sequence comprising all recovered sequences, for example, NALYNYSIPRPNVTSNL for ETRAMP10.2 (PBANKA_0517000) or […] for LDH (PBANKA_1340100), resulting in a consolidated list of 14 peptides (Table 1). We evaluated the I‐A^b binding affinity of these 14 peptides by quantifying their ability to inhibit binding of a high‐affinity radiolabeled peptide (Sidney et al, 2013).
Purification of I‐A^b MHC II molecules by affinity chromatography and the assay based on the inhibition of binding of a high‐affinity radiolabeled peptide to quantitatively measure peptide binding were described elsewhere (Sidney et al, 2013). Briefly, the mouse B‐cell lymphoma LB27.4 was used as a source of MHC molecules. A high‐affinity radiolabeled peptide (0.1–1 nM; peptide ROIV, sequence YAHAAHAAHAAHAAHAA) was co‐incubated at room temperature with purified MHC in the presence of a cocktail of protease inhibitors and an inhibitor peptide. Following a 2‐day incubation, MHC‐bound radioactivity was determined by capturing MHC/peptide complexes on mAb (Y3JP)‐coated Lumitrac 600 plates (Greiner Bio‐one), and measuring bound cpm using the TopCount (Packard Instrument Co) microscintillation counter. The concentration of peptide yielding 50% inhibition of the binding of the radiolabeled peptide was calculated. Under the conditions utilized, where [label] < [MHC] and IC50 ≥ [MHC], the measured IC50 values are reasonable approximations of the true Kd values. Each competitor peptide was tested at six different concentrations covering a 100,000‐fold range. The “cold” probe was used as a positive control in each experiment.

| Sequence | pIC50 |
| --- | --- |
| DNEYDFSGKAALVYGQ [ATPSYN] | 6.98 |
| INDRNFIATTALSSTEE [AMA1] | 6.09 |
| LHASPYVAPAAAIIEMAE [LDH] | 6.96 |
| KILYNSAKPNSDLH [END70] | 6.32 |
| LMTTVHASTANQLVV [GAPDH.2] | 6.01 |
| NALYNYSIPRPNVTSNL [ETRAMP] | 7.06 |
| APSEQTTTPEAATAASN [MSP1] | 5.87 |
| SGKVVEENPKAIKSGDS [EF1a] | 5.57 |
| LSEVVIHPETNYALTG [M1] | 4.80 |
| TEVPSLVPPTTNTSHAAPAH [MAHRP] | 6.06 |
| GINHEKYNSSQTIVSNAS [GAPDH.1] | 5.62 |
| LIPEYNEAAIMLSEKK [PDI] | 6.78 |
| GGSTYIAAKVNEAKD [TIM14] | 6.52 |
| TTLGIFRAAVPSGASTG [ENO] | 6.94 |
